Structures are written as SMILES.

For assay [1], the system named is hepatitis C virus. Description: Model of viral dynamics modified with Total ε: theoretical effectiveness rate and viral load over a 48 week treatment period. Further details: species or system patients. An excerpt: The effectiveness of suppression of viral production through treatment in accordance with the methods of the present invention can be calculated through a combination pharmacokinetic and pharmacodynamic analysis with a modified version of the absorption and elimination model described in the art. See Powers K A. et al. (Seminars in Liver Disease, 23 Suppl. 1:13-8, 2003). The absorption and elimination model, which incorporates the Neumann et al. model of viral dynamics, calculates simulated changes in drug concentration and effectiveness of single drug treatment in Equations […], 6, and 7. See Powers K A. et al. (Seminars in Liver Disease, 2003, 23 Suppl. 1:13-8), and Neumann A U, Lam N P, Dahari H, et al. (Science 1998, 282: 103-107). […]
Equation 7 incorporates the effects of a delay between a drug binding to its receptor and beginning its biological action. […] Thus, for t>τ, [formula] the effectiveness rate, ε, of a drug at time, t, is calculated by Equation 7.
For the present invention, the Neumann et al. model of Equation 1 and the absorption and elimination model of Equations 5, 6, and 7, is modified to incorporate calculations for monitoring the effectiveness rate of suppressing viral production by multiple drug treatment through combination therapy with the HCV protease inhibitor and HCV agents including interferon, interferon pegylated, and/or ribavirin. The absorption and elimination model in Equations 5, 6, and 7 is modified by including an effectiveness rate of a combination therapy, Total ε, which is based upon combining the individual efficacy, ε, over time, t, as calculated by Equation 7, for each drug used in the combination therapy of the present invention. The effectiveness rate, Total ε, is calculated with the formula […], where ε(t)Pl is the effectiveness of a HCV protease inhibitor and where ε(t)Ag is the effectiveness of an HCV agent, both independently calculated by Equation 7. […]

For assay [2], the system named is hepatitis C virus. Description: Parallel group study in patients afflicted with hepatitis C virus, 14 days, mean viral load (HCV RNA). Type of assay: in vivo. Conditions: either dose (200 mg or 400 mg three times a day orally) in combination with PEG-Intron 1.5 mcg/kg/week. On the procedure:
Preferably, in the practice of the invention, the concentration of HCV-RNA is quantitatively measured by research-based reverse transcriptase polymerase chain reaction (RT-PCR) assay well known to the skilled clinician. Specifically, the Hepatitis C virus (HCV) RNA is measured by extracting total RNA from plasma or serum samples and using an in-house real-time reverse transcriptase polymerase chain reaction (RT-PCR) assay. The amplification target is the 5′-untranslated region (UTR) of the HCV genome. An internal RNA control is added to each sample to assess the efficiency of RNA extraction. Appropriate negative and positive controls are added in each assay run. The assay method has been validated against the WHO International Standard for HCV. HCV RNA amount in a sample is reported as copies of HCV RNA per mL of sample and also as HCV IU per mL of sample. Results for sample at or above 100 copies of HCV RNA per mL are denoted as POS. On the other hand, ND stands for <100 copies of HCV RNA or <29 IU of HCV per mL of sample. […] With respect to quantifying HCV RNA with the rt-PCR methodology referred to herein, one (1) copy of HCV RNA equals 0.29 IU, such that 100 copies of HCV RNA per milliliter of plasma is 29 International Units per milliliter of plasma. […] HCV genotype is determined by sequencing the PCR amplified DNA fragment of the 5′-UTR of the HCV genome. […]

Regarding `CC(C)(C)NC(=O)N[C@H](C(=O)N1CC2C([C@H]1C(=O)NC(CC1CCC1)C(=O)C(N)=O)C2(C)C)C(C)(C)C` (some centres unmarked) [HCV protease inhibitor], the “theoretical effectiveness rate, ε, over time, t” value in the assay with hepatitis C virus [1] (200 mg three times a day orally with PEG-Intron 1.5 mcg/kg/week subcutaneously, 48 weeks) was determined as 0.989. Also, the “time of treatment until viral load is below 29 IU/ml plasma (100 copies per ml plasma)” value in the assay with hepatitis C virus [1] (200 mg three times a day orally with PEG-Intron 1.5 mcg/kg/week subcutaneously, theoretical calculations) was “approximately 14 weeks”. The “effectiveness rate, ε, over time, t” value in the assay with hepatitis C virus [1] (400 mg three times a day orally with PEG-Intron 1.5 mcg/kg/week subcutaneously, 48 weeks) was 0.997. In addition, the “viral load in the second week of treatment” value in the assay on hepatitis C virus [2] is recorded as “continued to decline”. The “decrease in mean viral load at the end of the first week of treatment” value in the assay with hepatitis C virus [2] (compared with PEG-Intron alone) is listed as “much steeper decrease in mean viral load”.
